2 compounds from ChEMBL document CHEMBL5696441 (Nat Chem Biol, 2011) can be followed below.

For experiment [1], the target named is T1, Calcium/calmodulin-dependent protein kinase type IV (Homo sapiens) (UniProt Q16566).
T1 sequence (whole entry): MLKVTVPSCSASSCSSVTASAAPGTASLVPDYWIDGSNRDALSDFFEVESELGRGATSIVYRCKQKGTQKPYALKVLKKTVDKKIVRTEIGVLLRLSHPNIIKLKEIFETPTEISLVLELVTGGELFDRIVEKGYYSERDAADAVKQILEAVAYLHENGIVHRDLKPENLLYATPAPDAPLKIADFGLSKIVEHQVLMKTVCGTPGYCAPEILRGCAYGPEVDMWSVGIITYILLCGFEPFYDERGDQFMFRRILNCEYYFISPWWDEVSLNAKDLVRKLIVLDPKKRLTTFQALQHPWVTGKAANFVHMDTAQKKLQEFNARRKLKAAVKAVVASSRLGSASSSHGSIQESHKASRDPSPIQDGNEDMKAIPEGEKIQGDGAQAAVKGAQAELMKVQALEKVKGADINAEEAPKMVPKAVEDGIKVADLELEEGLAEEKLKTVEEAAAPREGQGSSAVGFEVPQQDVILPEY
Kind of experiment: Inhibition of CAMK4 (unknown origin) assessed as remaining activity at 1 uM by Kinome scan method relative to control.

Experiment [2] deals with Serine/threonine-protein kinase MRCK gamma (Homo sapiens) (UniProt Q6DT37). Kind of experiment: Inhibition of DMPK2 (unknown origin) assessed as remaining activity at 1 uM by Kinome scan method relative to control.
For experiment [3], the target named is T2, Ephrin type-A receptor 1 (Homo sapiens) (UniProt P21709).
T2 sequence (whole entry): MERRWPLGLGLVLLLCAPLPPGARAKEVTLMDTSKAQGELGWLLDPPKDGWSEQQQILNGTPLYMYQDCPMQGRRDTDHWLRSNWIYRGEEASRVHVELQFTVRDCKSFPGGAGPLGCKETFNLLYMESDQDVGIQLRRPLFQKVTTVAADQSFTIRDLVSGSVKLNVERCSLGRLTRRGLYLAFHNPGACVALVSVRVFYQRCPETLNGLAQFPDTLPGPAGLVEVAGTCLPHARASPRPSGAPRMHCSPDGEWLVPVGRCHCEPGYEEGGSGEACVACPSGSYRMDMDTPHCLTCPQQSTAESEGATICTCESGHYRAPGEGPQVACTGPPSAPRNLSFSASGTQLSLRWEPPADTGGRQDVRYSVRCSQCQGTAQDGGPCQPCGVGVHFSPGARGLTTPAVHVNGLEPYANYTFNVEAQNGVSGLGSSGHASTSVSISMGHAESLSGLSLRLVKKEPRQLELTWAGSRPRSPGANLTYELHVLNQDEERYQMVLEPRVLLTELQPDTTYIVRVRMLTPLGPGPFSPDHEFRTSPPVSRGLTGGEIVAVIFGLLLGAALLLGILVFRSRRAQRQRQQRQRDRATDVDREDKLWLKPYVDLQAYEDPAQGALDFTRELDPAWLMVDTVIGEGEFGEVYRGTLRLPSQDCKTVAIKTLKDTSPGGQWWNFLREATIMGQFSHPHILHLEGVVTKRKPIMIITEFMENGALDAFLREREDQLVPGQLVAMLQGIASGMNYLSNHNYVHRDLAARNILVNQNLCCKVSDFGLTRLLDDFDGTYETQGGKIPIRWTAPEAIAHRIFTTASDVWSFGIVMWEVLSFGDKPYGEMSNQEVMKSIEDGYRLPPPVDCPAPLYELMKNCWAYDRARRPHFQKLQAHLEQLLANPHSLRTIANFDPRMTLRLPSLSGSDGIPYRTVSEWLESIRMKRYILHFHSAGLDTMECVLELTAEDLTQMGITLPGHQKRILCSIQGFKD
Briefly: Inhibition of EPHA1 (unknown origin) assessed as remaining activity at 1 uM by Kinome scan method relative to control.

Experiment [4] has as its target Mitogen-activated protein kinase 7 (Homo sapiens) (UniProt Q13164). Kind of experiment: Inhibition of ERK5 (unknown origin) assessed as remaining activity at 1 uM by Kinome scan method relative to control.
The target of experiment [5] is Mitogen-activated protein kinase kinase kinase kinase 1 (Homo sapiens) (UniProt Q92918). Kind of experiment: Inhibition of HPK1 (unknown origin) assessed as remaining activity at 1 uM by Kinome scan method relative to control.
For experiment [6], the target named is Serine/threonine-protein kinase ICK (Homo sapiens) (UniProt Q9UPZ9). Briefly: Inhibition of ICK (unknown origin) assessed as remaining activity at 1 uM by Kinome scan method relative to control.
Experiment [7] addresses T3, Tyrosine-protein kinase ITK/TSK (Homo sapiens) (UniProt Q08881).
T3 sequence (whole entry): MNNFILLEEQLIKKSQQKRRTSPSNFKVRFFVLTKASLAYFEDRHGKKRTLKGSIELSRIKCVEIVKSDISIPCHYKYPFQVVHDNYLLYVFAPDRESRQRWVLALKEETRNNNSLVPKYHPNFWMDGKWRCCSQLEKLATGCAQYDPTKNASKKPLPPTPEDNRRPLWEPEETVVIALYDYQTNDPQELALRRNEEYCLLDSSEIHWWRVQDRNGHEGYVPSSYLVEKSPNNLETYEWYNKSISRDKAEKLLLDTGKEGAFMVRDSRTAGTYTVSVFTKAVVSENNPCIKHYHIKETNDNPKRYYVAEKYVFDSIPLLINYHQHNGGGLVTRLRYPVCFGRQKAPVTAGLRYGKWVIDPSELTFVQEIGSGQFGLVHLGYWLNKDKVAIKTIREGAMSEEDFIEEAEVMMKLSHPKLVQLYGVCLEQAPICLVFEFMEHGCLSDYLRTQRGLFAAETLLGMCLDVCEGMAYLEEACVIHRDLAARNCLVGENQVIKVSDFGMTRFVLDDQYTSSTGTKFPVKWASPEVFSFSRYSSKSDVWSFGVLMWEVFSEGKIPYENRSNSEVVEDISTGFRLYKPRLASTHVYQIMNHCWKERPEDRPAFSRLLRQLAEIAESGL
Kind of experiment: Inhibition of ITK (unknown origin) assessed as remaining activity at 1 uM by Kinome scan method relative to control.

Experiment [8] has as its target Mitogen-activated protein kinase kinase kinase kinase 3 (Homo sapiens) (UniProt Q8IVH8). Kind of experiment: Inhibition of MAP4K3 (unknown origin) assessed as remaining activity at 1 uM by Kinome scan method relative to control.
In experiment [9] the target is Mitogen-activated protein kinase 11 (Homo sapiens) (UniProt Q15759). Briefly: Inhibition of P38beta (unknown origin) assessed as remaining activity at 1 uM by Kinome scan method relative to control.
Experiment [10] deals with 3-phosphoinositide-dependent protein kinase 1 (Homo sapiens) (UniProt O15530). Kind of experiment: Inhibition of PDPK1 (unknown origin) assessed as remaining activity at 1 uM by Kinome scan method relative to control.
The target of experiment [11] is Myosin light chain kinase family member 4 (Homo sapiens) (UniProt Q86YV6). Kind of experiment: Inhibition of SgK085 (unknown origin) assessed as remaining activity at 1 uM by Kinome scan method relative to control.
In experiment [12] the target is BDNF/NT-3 growth factors receptor (Homo sapiens) (UniProt Q16620). Kind of experiment: Inhibition of TRKB (unknown origin) assessed as remaining activity at 1 uM by Kinome scan method relative to control.
Sequence of BDNF/NT-3 growth factors receptor (Homo sapiens) (Q16620 32-822 limits assumed): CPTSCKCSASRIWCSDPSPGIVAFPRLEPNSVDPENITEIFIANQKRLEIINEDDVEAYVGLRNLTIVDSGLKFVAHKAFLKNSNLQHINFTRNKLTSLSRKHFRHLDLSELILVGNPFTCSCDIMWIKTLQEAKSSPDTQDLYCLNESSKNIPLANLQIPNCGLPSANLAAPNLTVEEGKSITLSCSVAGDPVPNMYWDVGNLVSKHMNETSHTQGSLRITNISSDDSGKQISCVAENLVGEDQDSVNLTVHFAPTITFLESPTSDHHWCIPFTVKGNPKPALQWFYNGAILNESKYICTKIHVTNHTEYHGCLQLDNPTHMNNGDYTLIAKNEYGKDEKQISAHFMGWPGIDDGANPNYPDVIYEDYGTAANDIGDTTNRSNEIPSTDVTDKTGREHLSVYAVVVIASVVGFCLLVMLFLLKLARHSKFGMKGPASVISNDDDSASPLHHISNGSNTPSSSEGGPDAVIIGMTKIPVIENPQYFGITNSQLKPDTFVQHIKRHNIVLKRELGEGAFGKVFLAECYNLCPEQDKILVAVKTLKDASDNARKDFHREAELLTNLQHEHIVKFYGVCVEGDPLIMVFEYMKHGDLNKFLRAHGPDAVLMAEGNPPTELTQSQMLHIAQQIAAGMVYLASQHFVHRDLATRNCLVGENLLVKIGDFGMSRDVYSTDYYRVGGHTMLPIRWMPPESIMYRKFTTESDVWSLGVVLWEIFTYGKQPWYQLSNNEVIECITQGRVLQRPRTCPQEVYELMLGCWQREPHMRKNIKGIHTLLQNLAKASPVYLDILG

Sequence of Mitogen-activated protein kinase kinase kinase kinase 1 (Homo sapiens) (Q92918 whole entry, looked up): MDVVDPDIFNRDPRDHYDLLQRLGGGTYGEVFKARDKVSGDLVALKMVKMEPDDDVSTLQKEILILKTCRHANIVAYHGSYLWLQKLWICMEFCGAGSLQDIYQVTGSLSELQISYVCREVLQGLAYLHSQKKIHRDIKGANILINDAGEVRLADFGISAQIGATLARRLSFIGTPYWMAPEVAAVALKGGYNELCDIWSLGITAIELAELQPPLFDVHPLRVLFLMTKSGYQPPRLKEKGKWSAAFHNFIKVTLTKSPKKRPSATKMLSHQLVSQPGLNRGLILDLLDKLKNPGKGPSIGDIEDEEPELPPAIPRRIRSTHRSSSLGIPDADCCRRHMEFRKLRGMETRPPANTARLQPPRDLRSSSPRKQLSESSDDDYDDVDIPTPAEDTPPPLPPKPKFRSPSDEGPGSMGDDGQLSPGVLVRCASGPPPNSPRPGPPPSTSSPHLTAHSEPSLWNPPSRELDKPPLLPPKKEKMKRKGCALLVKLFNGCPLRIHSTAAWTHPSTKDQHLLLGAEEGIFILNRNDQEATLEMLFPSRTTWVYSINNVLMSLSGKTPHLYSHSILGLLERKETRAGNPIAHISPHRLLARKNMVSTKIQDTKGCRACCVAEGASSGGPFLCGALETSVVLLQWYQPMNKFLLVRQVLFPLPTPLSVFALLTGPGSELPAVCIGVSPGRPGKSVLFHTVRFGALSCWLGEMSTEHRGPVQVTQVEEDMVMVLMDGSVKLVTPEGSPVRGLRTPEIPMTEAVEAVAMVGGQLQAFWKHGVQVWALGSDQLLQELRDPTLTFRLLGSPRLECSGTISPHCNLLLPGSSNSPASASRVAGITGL
Sequence of Myosin light chain kinase family member 4 (Homo sapiens) (Q86YV6 whole entry): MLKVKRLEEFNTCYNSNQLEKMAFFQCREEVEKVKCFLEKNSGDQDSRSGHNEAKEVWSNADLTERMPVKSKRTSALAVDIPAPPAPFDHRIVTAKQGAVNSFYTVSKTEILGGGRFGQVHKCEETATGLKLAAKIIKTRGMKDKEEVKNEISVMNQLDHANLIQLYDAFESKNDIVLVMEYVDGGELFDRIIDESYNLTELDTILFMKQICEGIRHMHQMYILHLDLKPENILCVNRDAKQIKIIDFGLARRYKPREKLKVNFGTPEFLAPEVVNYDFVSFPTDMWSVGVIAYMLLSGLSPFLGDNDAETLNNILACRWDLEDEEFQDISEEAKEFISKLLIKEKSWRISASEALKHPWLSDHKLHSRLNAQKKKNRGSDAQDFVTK
Sequence of 3-phosphoinositide-dependent protein kinase 1 (Homo sapiens) (O15530 whole entry): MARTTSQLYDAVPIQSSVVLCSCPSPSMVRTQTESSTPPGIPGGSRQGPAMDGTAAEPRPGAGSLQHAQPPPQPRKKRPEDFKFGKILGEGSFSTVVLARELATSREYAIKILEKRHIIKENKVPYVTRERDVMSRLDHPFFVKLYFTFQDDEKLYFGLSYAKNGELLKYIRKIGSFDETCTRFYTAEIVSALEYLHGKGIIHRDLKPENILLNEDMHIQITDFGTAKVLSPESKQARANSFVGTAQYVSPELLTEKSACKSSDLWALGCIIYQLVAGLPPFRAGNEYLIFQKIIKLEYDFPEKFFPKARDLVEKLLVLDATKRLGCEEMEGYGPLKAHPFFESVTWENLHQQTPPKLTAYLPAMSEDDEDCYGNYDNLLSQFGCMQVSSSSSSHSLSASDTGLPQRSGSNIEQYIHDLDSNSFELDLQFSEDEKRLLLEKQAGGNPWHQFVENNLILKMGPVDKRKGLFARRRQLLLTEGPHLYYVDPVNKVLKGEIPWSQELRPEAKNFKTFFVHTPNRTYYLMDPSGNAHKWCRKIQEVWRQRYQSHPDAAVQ
Sequence of Mitogen-activated protein kinase 11 (Homo sapiens) (Q15759 whole entry): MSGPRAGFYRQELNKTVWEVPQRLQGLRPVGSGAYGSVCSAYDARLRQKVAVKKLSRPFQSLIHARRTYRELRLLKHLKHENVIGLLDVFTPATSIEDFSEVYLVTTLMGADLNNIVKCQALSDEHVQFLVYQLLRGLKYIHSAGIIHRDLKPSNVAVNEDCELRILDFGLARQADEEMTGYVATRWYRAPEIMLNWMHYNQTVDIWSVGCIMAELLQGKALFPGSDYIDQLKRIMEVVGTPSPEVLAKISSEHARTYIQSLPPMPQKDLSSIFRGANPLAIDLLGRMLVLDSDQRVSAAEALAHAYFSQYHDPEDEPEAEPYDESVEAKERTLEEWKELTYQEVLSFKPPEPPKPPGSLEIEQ
Sequence of Serine/threonine-protein kinase MRCK gamma (Homo sapiens) (Q6DT37 whole entry): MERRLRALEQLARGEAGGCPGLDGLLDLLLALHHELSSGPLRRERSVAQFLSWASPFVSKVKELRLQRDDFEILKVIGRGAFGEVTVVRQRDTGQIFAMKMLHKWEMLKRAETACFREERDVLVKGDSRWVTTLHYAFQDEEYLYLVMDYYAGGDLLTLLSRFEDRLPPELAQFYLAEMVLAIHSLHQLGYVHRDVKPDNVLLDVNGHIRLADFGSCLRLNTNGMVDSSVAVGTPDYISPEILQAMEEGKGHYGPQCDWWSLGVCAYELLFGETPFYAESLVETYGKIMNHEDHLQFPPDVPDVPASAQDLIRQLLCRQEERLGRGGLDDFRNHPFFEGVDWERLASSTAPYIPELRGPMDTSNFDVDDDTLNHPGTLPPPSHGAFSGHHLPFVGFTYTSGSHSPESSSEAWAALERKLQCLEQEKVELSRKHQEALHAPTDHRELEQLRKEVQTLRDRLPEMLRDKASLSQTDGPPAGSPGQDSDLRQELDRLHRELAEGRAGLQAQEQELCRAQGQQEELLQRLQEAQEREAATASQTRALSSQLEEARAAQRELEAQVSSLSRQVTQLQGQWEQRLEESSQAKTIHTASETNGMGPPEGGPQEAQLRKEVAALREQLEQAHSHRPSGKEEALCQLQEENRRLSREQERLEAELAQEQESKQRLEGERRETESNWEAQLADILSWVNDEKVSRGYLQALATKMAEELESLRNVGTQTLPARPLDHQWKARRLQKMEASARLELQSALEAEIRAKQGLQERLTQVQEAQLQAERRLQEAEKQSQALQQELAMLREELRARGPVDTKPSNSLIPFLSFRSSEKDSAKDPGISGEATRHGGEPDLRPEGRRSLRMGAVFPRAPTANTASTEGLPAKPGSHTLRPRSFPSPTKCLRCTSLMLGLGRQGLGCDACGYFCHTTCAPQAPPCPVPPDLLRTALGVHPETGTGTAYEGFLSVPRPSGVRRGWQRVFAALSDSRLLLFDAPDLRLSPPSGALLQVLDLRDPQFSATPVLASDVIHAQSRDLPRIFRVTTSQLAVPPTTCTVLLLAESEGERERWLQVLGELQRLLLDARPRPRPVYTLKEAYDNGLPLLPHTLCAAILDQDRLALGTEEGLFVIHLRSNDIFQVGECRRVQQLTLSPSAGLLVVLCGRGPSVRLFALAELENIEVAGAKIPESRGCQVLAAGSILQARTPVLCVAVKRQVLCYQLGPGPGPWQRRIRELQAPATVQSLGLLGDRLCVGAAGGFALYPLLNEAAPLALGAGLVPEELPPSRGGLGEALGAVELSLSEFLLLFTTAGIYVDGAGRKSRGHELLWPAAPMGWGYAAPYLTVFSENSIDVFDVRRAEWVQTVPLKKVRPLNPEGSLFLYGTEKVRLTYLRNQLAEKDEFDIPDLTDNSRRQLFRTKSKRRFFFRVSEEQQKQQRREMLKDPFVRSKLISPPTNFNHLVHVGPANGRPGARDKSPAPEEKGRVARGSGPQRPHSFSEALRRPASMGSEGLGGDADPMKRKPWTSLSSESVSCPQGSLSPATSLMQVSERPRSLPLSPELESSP

Regarding `Nc1ccccc1Nc1ccc2c(c1)CCc1ccccc1C2=O`, the Activity in [1] amounted to 90%; in experiment [2], 92%; in experiment [3], 98%; in experiment [4], 96%; in experiment [5], 96%; in experiment [6] it was 83%. The Activity was 98% in [7]; 75% in experiment [8]; 0.9% in experiment [9]; 90% in experiment [10]; 97% in experiment [11]; 85% in experiment [12].
On to `O=C1c2ccc(Nc3ccc(F)cc3F)cc2CCc2ccc(OC[C@H](O)CO)cc21` [Skepinone-L], for which the Activity worked out at 90% in [1]; 100% in experiment [2]; 91% in experiment [3]; 99% in experiment [4]; 85% in experiment [5]; 99% in experiment [6]. Besides, the Activity in [7] was 100%; in experiment [8], 88%; in [9], 0.15%; in experiment [10], 100%; in [11], 100%; in [12] it was 100%.
